Laboratory results from patent publication US5534632A, “Macrocyclic carbamate immunomodulators” (Abbott Laboratories, priority 1994, dated 1996).

What follows are compounds tested on human mixed lymphocyte reaction (MLR) (assay: human mixed lymphocyte reaction (MLR) assay, immunosuppressant activity). Conditions: Table 1.
Type: cell-based
Protocol: The immunosuppressant activity of the compounds of the present invention was determined using the human mixed lymphocyte reaction (MLR) assay described by Kino, T. et al. in Transplantation Proceedings, XIX(5):36-39,Suppl.

SMILES | IC50
CC[C@@H]1/C=C(\C)C[C@H](C)C[C@H](OC)[C@H]2O[C@@](O)(C(=O)C(=O)N3CCCC[C@H]3C(=O)O[C@H](/C(C)=C/[C@@H]3CC[C@@H](OC(=O)N4CCOCCOCCOCCOCC4)[C@H](OC)C3)[C@H](C)[C@@H](O)CC1=O)[C@H](C)C[C@@H]2OC [Example 34] | 1.1 nM
CC[C@@H]1/C=C(\C)C[C@H](C)C[C@H](OC)[C@H]2O[C@@](O)(C(=O)C(=O)N3CCCC[C@H]3C(=O)O[C@H](/C(C)=C/[C@@H]3CC[C@@H](OC(=O)N(C)CCc4ccccc4)[C@H](OC)C3)[C@H](C)[C@@H](O)CC1=O)[C@H](C)C[C@@H]2OC [Example 30] | 4.2 nM
CC[C@@H]1/C=C(\C)C[C@H](C)C[C@H](OC)[C@H]2O[C@@](O)(C(=O)C(=O)N3CCCC[C@H]3C(=O)O[C@H](/C(C)=C/[C@@H]3CC[C@@H](OC(=O)N4CCOCC4)[C@H](OC)C3)[C@H](C)[C@@H](O)CC1=O)[C@H](C)C[C@@H]2OC [Example 8] | 0.4 nM
CC[C@@H]1/C=C(\C)C[C@H](C)C[C@H](OC)[C@H]2O[C@@](O)(C(=O)C(=O)N3CCCC[C@H]3C(=O)O[C@H](/C(C)=C/[C@@H]3CC[C@@H](OC(=O)N(O)C4CCCCC4)[C@H](OC)C3)[C@H](C)[C@@H](O)CC1=O)[C@H](C)C[C@@H]2OC [Example 26] | 1 nM
CC[C@@H]1/C=C(\C)C[C@H](C)C[C@H](OC)[C@H]2O[C@@](O)(C(=O)C(=O)N3CCCC[C@H]3C(=O)O[C@H](/C(C)=C/[C@@H]3CC[C@@H](OC(=O)N4CCN(C)CC4)[C@H](OC)C3)[C@H](C)[C@@H](O)CC1=O)[C@H](C)C[C@@H]2OC [Example 22] | 28 nM
CC[C@@H]1/C=C(\C)C[C@H](C)C[C@H](OC)[C@H]2O[C@@](O)(C(=O)C(=O)N3CCCC[C@H]3C(=O)O[C@H](/C(C)=C/[C@@H]3CC[C@@H](OC(=O)NO)[C@H](OC)C3)[C@H](C)[C@@H](O)CC1=O)[C@H](C)C[C@@H]2OC [Example 27] | 1.28 nM
CC[C@@H]1/C=C(\C)C[C@H](C)C[C@H](OC)[C@H]2O[C@@](O)(C(=O)C(=O)N3CCCC[C@H]3C(=O)O[C@H](/C(C)=C/[C@@H]3CC[C@@H](OC(=O)N4CCNCC4)[C@H](OC)C3)[C@H](C)[C@@H](O)CC1=O)[C@H](C)C[C@@H]2OC [Example 21] | 11 nM
CC[C@@H]1/C=C(\C)C[C@H](C)C[C@H](OC)[C@H]2O[C@@](O)(C(=O)C(=O)N3CCCC[C@H]3C(=O)O[C@H](/C(C)=C/[C@@H]3CC[C@H](OC(=O)N4CCOCC4)[C@H](OC)C3)[C@H](C)[C@@H](O)CC1=O)[C@H](C)C[C@@H]2OC [Example 41] | 0.08 nM
CC[C@@H]1/C=C(\C)C[C@H](C)C[C@H](OC)[C@H]2O[C@@](O)(C(=O)C(=O)N3CCCC[C@H]3C(=O)O[C@H](/C(C)=C/[C@@H]3CC[C@@H](OC(=O)Nc4ccncc4)[C@H](OC)C3)[C@H](C)[C@@H](O)CC1=O)[C@H](C)C[C@@H]2OC [Example 14] | 0.48 nM
CC[C@@H]1/C=C(\C)C[C@H](C)C[C@H](OC)[C@H]2O[C@@](O)(C(=O)C(=O)N3CCCC[C@H]3C(=O)O[C@H](/C(C)=C/[C@@H]3CC[C@@H](OC(=O)N4CCCCC4)[C@H](OC)C3)[C@H](C)[C@@H](O)CC1=O)[C@H](C)C[C@@H]2OC [Example 12] | 1.2 nM
CC[C@@H]1/C=C(\C)C[C@H](C)C[C@H](OC)[C@H]2O[C@@](O)(C(=O)C(=O)N3CCCC[C@H]3C(=O)O[C@H](/C(C)=C/[C@@H]3CC[C@@H](OC(=O)N4CCC(c5ccccc5)CC4)[C@H](OC)C3)[C@H](C)[C@@H](O)CC1=O)[C@H](C)C[C@@H]2OC [Example 19] | 2.6 nM
CC[C@@H]1/C=C(\C)C[C@H](C)C[C@H](OC)[C@H]2O[C@@](O)(C(=O)C(=O)N3CCCC[C@H]3C(=O)O[C@H](/C(C)=C/[C@@H]3CC[C@@H](OC(=O)NOCc4ccccc4)[C@H](OC)C3)[C@H](C)[C@@H](O)CC1=O)[C@H](C)C[C@@H]2OC [Example 6] | 0.21 nM
CC[C@@H]1/C=C(\C)C[C@H](C)C[C@H](OC)[C@H]2O[C@@](O)(C(=O)C(=O)N3CCCC[C@H]3C(=O)O[C@H](/C(C)=C/[C@@H]3CC[C@@H](OC(=O)N4CCC(=O)CC4)[C@H](OC)C3)[C@H](C)[C@@H](O)CC1=O)[C@H](C)C[C@@H]2OC [Example 16] | 4.75 nM
CCOC(=O)CN(C)C(=O)O[C@@H]1CC[C@@H](/C=C(\C)[C@H]2OC(=O)[C@@H]3CCCCN3C(=O)C(=O)[C@]3(O)O[C@H]([C@@H](OC)C[C@@H](C)C/C(C)=C/[C@@H](CC)C(=O)C[C@H](O)[C@H]2C)[C@@H](OC)C[C@H]3C)C[C@H]1OC [Example 32] | 27 nM
CC[C@@H]1/C=C(\C)C[C@H](C)C[C@H](OC)[C@H]2O[C@@](O)(C(=O)C(=O)N3CCCC[C@H]3C(=O)O[C@H](/C(C)=C/[C@@H]3CC[C@@H](OC(=O)N4CCC(C(N)=O)CC4)[C@H](OC)C3)[C@H](C)[C@@H](O)CC1=O)[C@H](C)C[C@@H]2OC [Example 36] | 15 nM
CC[C@@H]1/C=C(\C)C[C@H](C)C[C@H](OC)[C@H]2O[C@@](O)(C(=O)C(=O)N3CCCC[C@H]3C(=O)O[C@H](/C(C)=C/[C@@H]3CC[C@@H](OC(=O)N(CC)CCO)[C@H](OC)C3)[C@H](C)[C@@H](O)CC1=O)[C@H](C)C[C@@H]2OC [Example 28] | 4.26 nM
CC[C@@H]1/C=C(\C)C[C@H](C)C[C@H](OC)[C@H]2O[C@@](O)(C(=O)C(=O)N3CCCC[C@H]3C(=O)O[C@H](/C(C)=C/[C@@H]3CC[C@@H](OC(=O)NNC(N)=O)[C@H](OC)C3)[C@H](C)[C@@H](O)CC1=O)[C@H](C)C[C@@H]2OC [Example 5] | 8.7 nM
CC[C@@H]1/C=C(\C)C[C@H](C)C[C@H](OC)[C@H]2O[C@@](O)(C(=O)C(=O)N3CCCC[C@H]3C(=O)O[C@H](/C(C)=C/[C@@H]3CC[C@@H](OC(=O)N4CCC(C(=O)O)CC4)[C@H](OC)C3)[C@H](C)[C@@H](O)CC1=O)[C@H](C)C[C@@H]2OC [Example 18] | 13 nM
CC[C@@H]1/C=C(\C)C[C@H](C)C[C@H](OC)[C@H]2O[C@@](O)(C(=O)C(=O)N3CCCC[C@H]3C(=O)O[C@H](/C(C)=C/[C@@H]3CC[C@@H](OC(=O)N(C)OC)[C@H](OC)C3)[C@H](C)[C@@H](O)CC1=O)[C@H](C)C[C@@H]2OC [Example 24] | 1.1 nM
CC[C@@H]1/C=C(\C)C[C@H](C)C[C@H](OC)[C@H]2O[C@@](O)(C(=O)C(=O)N3CCCC[C@H]3C(=O)O[C@H](/C(C)=C/[C@@H]3CC[C@H](OC(=O)NC(CO)(CO)CO)[C@H](OC)C3)[C@H](C)[C@@H](O)CC1=O)[C@H](C)C[C@@H]2OC [Example 40] | 0.68 nM
CC[C@@H]1/C=C(\C)C[C@H](C)C[C@H](OC)[C@H]2O[C@@](O)(C(=O)C(=O)N3CCCC[C@H]3C(=O)O[C@H](/C(C)=C/[C@@H]3CC[C@@H](OC(=O)N(C)O)[C@H](OC)C3)[C@H](C)[C@@H](O)CC1=O)[C@H](C)C[C@@H]2OC [Example 25] | 0.28 nM
CC[C@@H]1/C=C(\C)C[C@H](C)C[C@H](OC)[C@H]2O[C@@](O)(C(=O)C(=O)N3CCCC[C@H]3C(=O)O[C@H](/C(C)=C/[C@@H]3CC[C@H](OC(=O)Nc4ccncc4)[C@H](OC)C3)[C@H](C)[C@@H](O)CC1=O)[C@H](C)C[C@@H]2OC [Example 43] | 0.34 nM
CC[C@@H]1/C=C(\C)C[C@H](C)C[C@H](OC)[C@H]2O[C@@](O)(C(=O)C(=O)N3CCCC[C@H]3C(=O)O[C@H](/C(C)=C/[C@@H]3CC[C@@H](OC(=O)N(C)CCN(CC)CC)[C@H](OC)C3)[C@H](C)[C@@H](O)CC1=O)[C@H](C)C[C@@H]2OC [Example 35] | 1.79 nM
CC[C@@H]1/C=C(\C)C[C@H](C)C[C@H](OC)[C@H]2O[C@@](O)(C(=O)C(=O)N3CCCC[C@H]3C(=O)O[C@H](/C(C)=C/[C@@H]3CC[C@@H](OC(=O)N(CCO)CCO)[C@H](OC)C3)[C@H](C)[C@@H](O)CC1=O)[C@H](C)C[C@@H]2OC [Example 13] | 3.3 nM
CC[C@@H]1/C=C(\C)C[C@H](C)C[C@H](OC)[C@H]2O[C@@](O)(C(=O)C(=O)N3CCCC[C@H]3C(=O)O[C@H](/C(C)=C/[C@@H]3CC[C@@H](OC(=O)N4CCC(O)CC4)[C@H](OC)C3)[C@H](C)[C@@H](O)CC1=O)[C@H](C)C[C@@H]2OC [Example 15] | 1.34 nM
CC[C@@H]1/C=C(\C)C[C@H](C)C[C@H](OC)[C@H]2O[C@@](O)(C(=O)C(=O)N3CCCC[C@H]3C(=O)O[C@H](/C(C)=C/[C@@H]3CC[C@@H](OC(=O)N(C)C[C@H](O)[C@@H](O)[C@H](O)[C@H](O)CO)[C@H](OC)C3)[C@H](C)[C@@H](O)CC1=O)[C@H](C)C[C@@H]2OC [Example 23] | 50 nM
CC[C@@H]1/C=C(\C)C[C@H](C)C[C@H](OC)[C@H]2O[C@@](O)(C(=O)C(=O)N3CCCC[C@H]3C(=O)O[C@H](/C(C)=C/[C@@H]3CC[C@H](OC(=O)N(CCO)CCO)[C@H](OC)C3)[C@H](C)[C@@H](O)CC1=O)[C@H](C)C[C@@H]2OC [Example 45] | 0.11 nM
CC[C@@H]1/C=C(\C)C[C@H](C)C[C@H](OC)[C@H]2O[C@@](O)(C(=O)C(=O)N3CCCC[C@H]3C(=O)O[C@H](/C(C)=C/[C@@H]3CC[C@@H](OC(=O)N(C)Cc4ccccc4)[C@H](OC)C3)[C@H](C)[C@@H](O)CC1=O)[C@H](C)C[C@@H]2OC [Example 29] | 4.45 nM
